From US5439930A, “Biologically active n-acylprolydipeptides having antiamnestic, antihypoxic and anorexigenic effects” (Russian-American Institute for New Drug Development, priority 1992, dated 1995)
Where a SMILES comes first, the peptide text is derived from it. The star is where a group is joined. PhAc = O=C(Cc1ccccc1)*

Tests used:
24-month Wistar rats [1] = assay: Passive avoidance retention in aged rats; type: in vivo
Experimental: (§1) The influence of Compound I on age-related mental decline was studied in experiments on 24-month Wistar rats. The substance was administered chronically in the dose of 0.1 mg/kg/day during 24 days, intraperitoneally before the testing and 14 days during testing.
Chronic administration of Compound I facilitated the retention tested 24 hours and especially 14 days after learning in passive avoidance test (Table 11). It is evident from these experiments that Compound I is able to improve amnestic function in the old rats.

[2] = tested on: phenazepam withdrawn male albino rats; assay: Threshold of aggressive behavior during phenazepam withdrawal; type: in vivo; conditions: 0.5 mg/kg i.p.; 24 hours after the last administration of phenazepam
Experimental: The influence of Compound I on withdrawal syndrome caused by the interruption of chronic administration of benzodiazepine tranquilizer phenazepam (T. A. Voronina et al., In Fenazepam; A. V. Bogatsky, Ed.; Naukova dumka Publishers: Kiev, 1982; pp. 67-169) was studied in experiments on male albino rats weighing 190-200 g at the beginning and 300-350 g at the end of the experiment.
Phenazepam (2 mg/kg intraperitoneally) or saline (control group of rats) were given once daily for 57 days. The withdrawal syndrome occurred 24-72 hours after the last injection. The withdrawal syndrome in rats consisted in "anxiogenic-like" state aggressiveness and accelerated development of kindled seizures caused by pentylentetrazol. Compound I was administered to the withdrawn rats in doses of 0.5 mg/kg intraperitoneally 15 minutes prior to testing.
The threshold of the aggressive behavior was determined in the experiment on the rats (R. Tedeshi et al., J. Pharmacol. Exp. Ther., 125, 28-34 (1959)). The paired rats were placed on the electrified floor; the strength of the current, which provokes the fighting, was registered.

outbred albino mice = assay: Hypobaric hypoxia survival (barometric chamber, 11,000 m); type: in vivo; conditions: 0.5 mg/kg 15 minutes before hypoxia, 1 hour exposition
Experimental: The protective effect of Compound I in hypoxia was assessed using the barometric chamber by "elevating" of the outbred albino mice (18-22 g) to the altitude of 11,000 m at a speed of 1000 m/min. After 1 hour exposition the percentage of surviving mice after 0.9% saline pretreatment was 15%.

outbred male mice = assay: Gross behavior and acute toxicity; type: in vivo
Experimental: Compound I was checked for gross behavior and acute toxicity in outbred male mice (18-22 g).
In the dose of 1000 mg/kg compound I caused excitement in 50% of animals. In the dose of 5000 mg/kg i.p. compound I caused death in 50% of animals.

24-month Wistar rats [3] = assay: Locomotor activity and habituation in aged rats (Optovarimex); type: in vivo
Experimental: as §1
Registration of the locomotor activity in the Optovarimex multichannel analyzer has shown that Compound I increased the initial horizontal activity being administered chronically. […] This test is suitable for the study of nootropics. In the control group the coefficient of the habituation was 0.29.

outbred albino male mice = assay: Acute habituation of locomotor activity (Optovarimex); type: in vivo
Experimental: The effect of Compound I on acute habituation of locomotor activity was estimated according to diminution of locomotions during 30 minutes. Experiments were performed on outbred albino male mice (18-22 g) placed in groups of 10 animals in registration cage (Optovarimex, Colomb., USA).

lobectomized rats [4] = assay: Active avoidance after frontal lobectomy; type: in vivo; conditions: 0.1 mg/kg daily
Experimental: (§2) The impairment of learning and memory was achieved also by frontal lobectomy, which was performed after passive avoidance or active avoidance learning. Compound I (0.1 mg/kg) was administered beginning from the first post-operational day and lasting for 9 days. The testing was performed at 4th and 9th days. […] The frontal lobectomy has as a consequence the decrease of the latency of the entering of the dark compartment; Compound I restored the passive avoidance reaction (Table 8).
Compound I increased the percentage of the animals performing the active avoidance reaction and the coefficient of the preserving (Table 8).

[5] = Body weight and food consumption; type: in vivo, rats
Experimental: The influence of Compound I on body weight and food consumption was studied in the experiments on the outbred rats. The substance, administered during 3 weeks in dose of 0.1 mg/kg/day intraperitoneally slowed the dynamics of weight increase in comparison to control: the increase of the weight (in %% to the initial one) was 12% in the treated group and 24% in the control group.
The amount of the consumed chow checked between 19th and 21st days was less for treated animals (39.5 g/day/rat) than for control ones (68.6 g/day/rat).

[6] = tested on: memory decline evoked by scopolamine in randomly bred male albino rats; assay: Passive avoidance step-through, amnesia by scopolamine; type: in vivo; conditions: 0.1 mg/kg 15 min before learning
Experimental: Compounds according to the present invention, including the compounds described in Examples 1-11, were checked for their ability to prevent memory decline evoked by maximal electroshock (MES) or scopolamine in the passive avoidance step-through paradigm (equipment of Laffaette Co., USA). The experiments described herein (Examples 12, 13, 15, and 19) were carried out using randomly bred male albino rats of a weight of approximately 180-220 g. […] Amnesia was produced by transcorneal maximal electroshock immediately after learning or scopolamine (1 mg/kg, subcutaneously) administration 30 min. before learning. The retention was tested 24 hours later by the measurement of latency of the entering of the dark compartment.
The degree of antiamnestic activity was estimated according to Buttler's modified formula: [formula]
The higher the magnitude of this indicator the more is the antiamnestic activity.

lobectomized rats [7] = assay: Passive avoidance after frontal lobectomy; type: in vivo; conditions: 9th day, 0.1 mg/kg for 9 days
Experimental: as §2

## CCOC(=O)CNC(=O)[C@@H]1CCCN1C(=O)Cc1ccccc1 [Compound I, N-phenacetyl-L-prolylglycine ethyl ester] (PhAc-Pro-Gly-OEt)
24-month Wistar rats [1]; 24 hours after learning
  Passive avoidance test (latency, sec): 128 s
24-month Wistar rats [1]; 14 days after learning
  Passive avoidance test (latency, sec): 132 s
[2]
  Aggression Threshold (mA): 0.92 ± 0.1 mA
Outbred albino mice
  Percentage of surviving mice: 43.7%
Outbred male mice; 25 mg/kg
  Stimulating effect of amphetamine: diminished the stimulating effect of amphetamine
Outbred male mice; 1-10 mg/kg i.p.
  Rectal temperature: did not change rectal temperature
  Spontaneous motor activity: neither stimulated nor depressed the spontaneous motor activity
  Stimulating effect of amphetamine on motor activity: did not enhance the stimulating effect of amphetamine
Outbred male mice; 1000 mg/kg
  Excitement, % of animals: 50%
Outbred male mice; 5000 mg/kg i.p.
  Death, % of animals: 50%
Outbred male mice; 500-3000 mg/kg i.p.
  Lethality at 24 hours: did not cause lethality
Outbred male mice; up to the dose of 500 mg/kg
  General condition (gross behavior): did not disturb the general condition
  Motor coordination (rota rod test): did not change motor coordination
24-month Wistar rats [3]; 0.1 mg/kg/day i.p. chronically
  Coefficient of habituation (ratio - 5th min/1st min): 0.03
24-month Wistar rats [3]; 1st min. of registration, 0.1 mg/kg/day i.p. chronically
  Locomotor activity (counts): 422 counts
24-month Wistar rats [3]; 5th min. of registration
  Locomotor activity (counts): 13 counts
Outbred albino male mice; 0.05 mg/kg, 15 min before registration
  Habituation index (motor activity last 5 min / first 5 min of recording): 30%
Outbred albino male mice; 0.1 mg/kg
  Habituation index: 10%
Outbred albino male mice; 0.5 mg/kg
  Habituation index: 15%
Outbred albino male mice; 2.5 mg/kg
  Habituation index: 25%
Outbred albino male mice; 5.0 mg/kg
  Habituation index: 27%
Outbred albino male mice; dose range 0.05-5.0 mg/kg
  Initial locomotor activity: without changing of initial locomotor activity
Lobectomized rats [4]; 4th day
  %% of avoiding rats: 42.8%
  Active avoidance test - coeff. of preserving: 28.1%
Lobectomized rats [4]; 9th day
  %% of avoiding rats: 57.1%
  Active avoidance test - coeff. of preserving: 38.1%
[5]; 0.1 mg/kg/day i.p. during 3 weeks
  Increase of the weight (in %% to the initial one): 12%
[5]; between 19th and 21st days, 0.1 mg/kg/day i.p.
  Amount of the consumed chow: 39.5 g/day/rat
[6]; scopolamine 1 mg/kg s.c.
  Aa (antiamnestic activity): 55.5
[6]; scopolamine 1 mg/kg s.c. 30 min before trial
  Latency (sec.) Scopolamine + substance: 64.1 s
Lobectomized rats [7]
  Passive avoidance test (latency, sec): 141.2 s
